The test system of assay [1] is Cryptococcus gatti. The assay can be described thus: Cryptococcus proliferation. Format: cell-based. The following applies: 50 μM and 100 μM; 37° C., 18 hours. How it is done: FIGS. 27A and 27B. Compound #4 inhibits proliferation of Cryptococcus gatti.
Compound #4 was also tested for its inhibitory effect on the growth of Cryptococcus gatti. Cryptococcus cells were incubated at 37° C. in unsupplemented RPMI tissue culture media (+Glutamine−Phenol Red (Gibco #11835, Life Technologies, Grand Island, N.Y.; “RPMI”) or RPMI tissue culture media supplemented with 100 U/ml Penicillin/100 ug/ml Streptomycin (Gibco 100× Pen/Strep #151500-122), 1 mM NaPyruvate, and 10 mM HEPES pH 7.0 (“Af medium”) in the presence of 1% DMSO (control), 50 μM compound #4, or 100 μM compound #4, and cell numbers were counted after 18 hours. The assay was also performed with an untreated control.

The subject of assay [2] is C. elegans infected with C. albicans. The assay can be described thus: C. elegans pathogenesis assay. Format: in vivo, Caenorhabditis elegans. The following applies: 12.5 μM. The method, then: We therefore tested whether compound #4 can alter fungal infections in two in vivo settings. First, we performed pathogenesis assays in which nematodes (Caenorhabditis elegans) are infected with C. albicans, resulting in killing of the nematode host (Jain, 2009; Okoli, 2009). We used this assay to test whether compound #4 might have a protective effect, exposing C. elegans to Candida albicans and either DMSO vehicle, the commonly used antifungal drug fluconazole at 12.5 μM, or compound #4 at the same concentration. […] Therefore, consistent with its in vitro activities, compound #4 functions as an antifungal agent in this model infection system.
Three worms in the L3/L4 stage were transferred to each of two NGM agar plates containing E. coli OP50 and grown at 20° C. for four days. On the day of the experiment, worms were washed off the plates with M9 buffer and centrifuged at 900×g for 2 min. The supernatant was removed, and the worms were then resuspended in a bleach solution (1:4 dilution of commercial bleach (5.25%) diluted in 0.25 M sodium hydroxide). The worm suspension was mixed gently by inversion for 3 min, and centrifuged for 2 min at 2,000×g. The pellet containing the eggs was washed with M9 buffer and centrifuged at 2,000×g for 2 min and then resuspended in 500 μl M9 buffer. […]

The subject of assay [3] is C. albicans SC5314-GFP. The assay can be described thus: GFP-based adhesion assay. The following applies: Candida albicans, SC5314, read-out: IC50 in the GFP-based adhesion assay. Format: cell-based. The method, then: To do this, we measured adhesion of cells plated and washed as before, but here using a C. albicans strain encoding GFP. This allowed us to measure adhesion both in a fluorescence plate reader and by microscopy (FIGS. 1D and 1E). Indeed, these GFP-based assays confirmed that all the compounds effective at 25 μM in the alamarBlue-based assay impair C. albicans adhesion to polystyrene. We conclude that our chemical screen detected multiple compounds that block adhesion to polystyrene, and that these can be assayed via multiple detection methods.
SC5314-GFP and edt1^−/−-GFP strains were pregrown overnight in SC+0.2% glucose media at 30° C., diluted into fresh SC+0.2% glucose media to a final concentration of 5×10^6 cells/ml (equivalent to 0.5 OD600/ml) and plated onto Immulon 2HB 96-well plates, with each well receiving 0.1 OD of cells. DMSO or compounds resuspended in DMSO were added to the desired final concentration (1% vol/vol of DMSO was maintained). Plates were then incubated for 4 hours at 37° C. […] Fluorescence was measured using a Synergy HT plate reader (BioTek) following addition of […] of PBS/well. For each experiment, untagged SC5314 was analyzed simultaneously to determine background fluorescence that was subtracted from the signal from each well.

Assay [4] has as its system C. albicans SC5314 on excised murine vaginal mucosal tissue. The assay can be described thus: ex vivo mouse vaginal mucosal infection (VVC). The settings on record: 24 h. How it is done:
FIG. 6A-6B. Effects on metazoan hosts. FIG. 6A is a graph showing the lifespan of C. elegans exposed to C. albicans treated with 12.5 μM compound #4 (lower graph line) or 12.5 μM fluconazole (upper graph line) compared to untreated (middle graph line). […] FIG. 6B is a series of photographs showing microscopic analysis of ex vivo vaginal mucosal biofilm formation. Mice were administered estrogen and vaginae were harvested. Tissues were either uninfected, or pretreated with DMSO or 50 μM compound #4, and then inoculated with C. albicans SC5314 (10^6 blastoconidia) and incubated for 24 h. Tissues were bisected and processed for scanning electron microscopy (SEM), or confocal microscopy (CM) after staining with Calcofluor to detect yeast (blue) and Concavalin A to visualize extracellular matrix (red). SEM images were taken at 1000× magnification, and CM images at 600× magnification.
In this assay, excised murine vaginal mucosal tissue is tested as a substrate for infection by Candida cells, providing a rapid and simple method for optimizing treatment conditions prior to in vivo infection assays. The other readout in the assay is a measure of the number of viable fungal cells, expressed as colony forming units (CFU).
These ex vivo infections were performed as described (Harriott, 2010).

Assay [5] relates to Aspergillus fumigatus. The assay can be described thus: Aspergillus hyphal formation. Type of assay: cell-based. The settings on record: 50 μM and 100 μM; RPMI overnight. The method, then: FIGS. 26A-26D. Compound #4 inhibits hyphal formation of Aspergillus fumigatus. FIGS. 26A-26B are photographs showing hyphal development occurs normally in RPMI tissue culture media in the absence of treatment (FIG. 26A) and in the presence of 1% DMSO (control; FIG. 26B). Aspergillus hyphal development was inhibited in the presence of 50 μM and 100 μM compound #4 (FIGS. 26C and 26D, respectively).
Compound #4 was also tested for its inhibitory effect on the growth of Aspergillus fumigatus. Fresh Aspergillus fumigatus conidia (spores) were grown in RPMI tissue culture media overnight in the presence of 1% DMSO (control), 50 μM compound #4, 100 μM compound #4, or no treatment (control) using methods similar to those described in Ramirez-Ortiz et al. (Cell Host & Microbe 9:415-424, 2011). […] This is the first step in germination of the spores, and is required for pathogenesis.

Entries after “also recorded” stand apart in the source; their conditions may differ.

As for `Cc1ccc(C(=O)N2CCN(c3ccc([N+](=O)[O-])cc3)CC2)cc1Cl` [Compound 4], the “proliferation (cell numbers)” value in assay [1] is “inhibited proliferation of Cryptococcus gatti at both concentrations tested”. Further, in assay [2], the “lifespan of infected worms” value is recorded as “significantly increased survival; also recorded: increased the lifespan of the infected worms”. The IC50 (commonly the concentration that inhibits the measured activity by half) in assay [3] is approximately 3000 nM. Moreover, the CFU recovered entry in assay [4] (50 μM pretreatment) was “did not observe significant differences”. In assay [4] (50 μM), the “extracellular matrix (Concavalin A staining)” value was “still formed a carbohydrate-rich extracellular matrix” and the “hyphae formation or ECM production” value was “only partially inhibits hyphae formation or ECM production”. Moreover, in assay [5], the hyphal formation entry is listed as “blocks hyphal formation at both concentrations tested”.

The values above are taken from patent US9648880B2, “Antifungal agents and uses thereof” (University of Massachusetts, priority 2012, dated 2017).
